Reference: patent US20220288154A1, “GNRH ANTAGONISTS FOR THE TREATMENT OF ESTROGEN-DEPENDENT DISORDERS” (ObsEva S.A., priority 2019, published 2022)
Marks after values point to notes of the source that are not given here.

Experiments:
[1] = PRIMROSE 1 and PRIMROSE 2: lumbar spine bone mineral density; type: in vivo, human; conditions: 100 mg/day or 200 mg/day + ABT; 24 and 52 weeks
Protocol: To evaluate the safety of compound (VI), patients' bone mineral density levels were measured at baseline and at various timepoints during the studies.

human GnRH receptor = biological target: T1, human GnRH receptor (Homo sapiens, UniProt P30968); assay: Affinity for human GnRH receptor; type: binding
T1 sequence (P30968 1-328): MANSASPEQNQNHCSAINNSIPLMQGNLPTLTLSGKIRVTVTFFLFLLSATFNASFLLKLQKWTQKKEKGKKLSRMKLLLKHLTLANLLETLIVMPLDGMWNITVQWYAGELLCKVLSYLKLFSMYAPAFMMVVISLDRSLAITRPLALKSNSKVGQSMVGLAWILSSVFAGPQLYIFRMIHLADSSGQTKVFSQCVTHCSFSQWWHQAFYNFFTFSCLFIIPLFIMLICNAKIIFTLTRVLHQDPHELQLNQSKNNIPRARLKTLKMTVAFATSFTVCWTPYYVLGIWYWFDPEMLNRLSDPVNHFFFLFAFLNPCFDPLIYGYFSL

[2] = tested on: human female patients diagnosed as having uterine fibroids; assay: PRIMROSE 1 Phase 3 placebo-controlled trial in uterine fibroids; type: in vivo
Protocol: (§1) The PRIMROSE 1 study, conducted in the United States, enrolled 526 women. The PRIMROSE 2 study, conducted in the United States and Europe, enrolled 535 women. Patients were randomized to one of several cohorts: […] […] Pain levels were measured using a Verbal Rating Score (VRS), as described herein. Patients were also assessed to determine the proportion that reported an improvement in quality of life using the Uterine Fibroids Symptoms and Health-Related Quality of Life questionnaire.

[3] = tested on: human female patients diagnosed as having uterine fibroids; assay: PRIMROSE 2 Phase 3 placebo-controlled trial in uterine fibroids; type: in vivo; conditions: for patients achieving menstrual blood loss ≤80 mL and ≥50% reduction from baseline: 52 weeks
Protocol: as §1

[4] = in vivo
Protocol: BMD of the femoral neck, total hip and lumbar spine was assessed by DXA at baseline and after 12 and 24 weeks of treatment. Reading of DXA scans and monitoring of scan quality, including cross-calibration between sites, was centralized.
All bone mineral density measurements shown below were obtained by assessing bone mineral density at each patient's spine.

[5] = tested on: human female patients diagnosed as having endometriosis; assay: Phase 2b placebo-controlled trial in endometriosis: endometriosis-associated pain (daily electronic diary); type: in vivo; conditions: for Dyspareunia Mean (SD) Change from baseline (CFB): 0-3 VRS score; for Dyschezia Mean (SD) CFB: 0-10 NRS score; for Overall Pelvic Pain Responder Rate (VRS score reduction of >30% from baseline): after 52 weeks
Protocol: This example describes the results of a Phase 2b, double-blind, randomized, placebo-controlled, multicenter, human clinical trial undertaken to evaluate the efficacy of a GnRH antagonist represented by formula (VI) in a series of patients suffering from an estrogen-dependent disease. In this trial, a series of human female patients diagnosed as having endometriosis were administered the choline salt of 3-[2-fluoro-5-(2,3-difluoro-6-methoxybenzyloxy)4-methoxyphenyl]-2,4-dioxo-1,2,3,4-tetrahydrothieno[3,4d]pyrimidine-5-carboxylic acid periodically over the course of a 52-week treatment period. After 52 weeks of treatment, the patients were monitored for severity of disease symptoms and bone mineral density.
Participants were women aged 18 to 45 years with surgically confirmed endometriosis and moderate to severe EAP. Women with a history of osteoporosis or other metabolic bone disease were excluded. Certain subjects completing an initial 24-week treatment period were invited to continue in a treatment extension phase, resulting in a total of up to 52 weeks of treatment. Subjects that completed 52 weeks of treatment constituted the treatment extension analysis set (TEAS) of patients.
Patients were randomized to either (i) 50 mg/day, 75, mg/day, 100 mg/day, or 200 mg/day of 3-[2-fluoro-5-(2,3-difluoro-6-methoxybenzyloxy)4-methoxyphenyl]-2,4-dioxo-1,2,3,4-tetrahydrothieno[3,4d]pyrimidine-5-carboxylic acid, administered as a choline salt, or (ii) matching placebo. Patients assigned to the placebo cohort were switched to 100 mg/day of 3-[2-fluoro-5-(2,3-difluoro-6-methoxybenzyloxy)4-methoxyphenyl]-2,4-dioxo-1,2,3,4-tetrahydrothieno[3,4d]pyrimidine-5-carboxylic acid at week 12.
Patients that received 75 mg/day of compound (VI) were divided into two groups: those that received a fixed dose (FD) of compound (VI) at 75 mg/day throughout the 52-week treatment period, and those that received a titrated dose (TD) of 75 mg/day of compound (VI) for the first 12 weeks of the treatment period, followed by a daily dose of either 50 mg, 75 mg, or 100 mg of the compound depending on each patient's serum E2 concentration after 4 weeks or 8 weeks of treatment. Dosages from week 12 onward for patients in the 75 mg/day TD cohort were determined according to the following schedule:
Patients that were treated with 200 mg/day of the compound at the 24-week timepoint in the treatment period were switched to 100 mg/day for the final […] of the study.
EAP was assessed using questionnaires in a daily electronic diary. Mean 28-day scores for pelvic pain were calculated at each month up to 12 months and compared to baseline. Efficacy was assessed as the proportion of patients who had at least 30% reduction in OPP at 12 weeks. DYS, NMPP, dyspareunia, and dyschezia were also assessed. […]

[6] = 200 mg/day to week 24, then 100 mg/day, 52 weeks

**Q.** Which results are given for COc1cc(F)c(-n2c(=O)[nH]c3csc(C(=O)O)c3c2=O)cc1OCc1c(OC)ccc(F)c1F [Compound (VI), 3-[2-fluoro-5-(2,3-difluoro-6-methoxybenzyloxy)4-methoxyphenyl]-2,4-dioxo-1,2,3,4-tetrahydrothieno[3,4d]pyrimidine-5-carboxylic acid]?
**A.** effect on lumbar spine bone mineral density [1]: does not induce a substantial decrease in bone mineral density; affinity for human GnRH receptor (human GnRH receptor): 27.4 nM; p value: Improvement in quality of life, Change from baseline in QoL symptom severity score (LS mean) ([2]; 100 mg/day): p = 0.002; patients achieving menstrual blood loss ≤80 mL and ≥50% reduction from baseline ([2]; 100 mg/day without ABT, 24 weeks): 56.4%; patients achieving menstrual blood loss ≤80 mL and 50% reduction from baseline ([2]; 200 mg/day + ABT (1.0 mg E2 + 0.5 mg NETA), 24 weeks): 75.5%; p value: Improvement in quality of life, Change from baseline in QoL symptom severity score (LS mean) ([2]; 200 mg/day + once-daily ABT): p < 0.001; p value: Improvement in quality of life, Change from baseline in QoL symptom severity score (LS mean) ([3]; 100 mg/day): p = 0.004; patients achieving menstrual blood loss ≤80 mL and ≥50% reduction from baseline ([3]; 100 mg/day without ABT): 53.2%; patients achieving menstrual blood loss ≤80 mL and ≥50% reduction from baseline ([3]; 200 mg/day + ABT): 91.6%; p value: Improvement in quality of life, Change from baseline in QoL symptom severity score (LS mean) ([3]; 200 mg/day + once-daily ABT): p < 0.001

**Q.** Which results are given for COc1cc(F)c(-n2c(=O)[nH]c3csc(C(=O)O)c3c2=O)cc1OCc1c(OC)ccc(F)c1F [GnRH antagonist, 3-[2-fluoro-5-(2,3-difluoro-6-methoxybenzyloxy)4-methoxyphenyl]-2,4-dioxo-1,2,3,4-tetrahydrothieno[3,4d]pyrimidine-5-carboxylic acid]?
**A.** average bone mineral density losses [4]: less than 5%; Dyspareunia Mean (SD) Change from baseline (CFB) ([5]; 50 mg/day, 12 weeks): −0.6 (0.7); Dyspareunia Mean (SD) Change from baseline (CFB) ([5]; 50 mg/day, 24 weeks): −0.7 (0.8); Dyspareunia Mean (SD) Change from baseline (CFB) ([5]; 50 mg/day, 52 weeks): −0.5 (1.1); Dyspareunia Mean (SD) Change from baseline (CFB) ([5]; 75 mg/day, 12 weeks): −0.7 (0.8); Dyspareunia Mean (SD) Change from baseline (CFB) ([5]; 75 mg/day, 24 weeks): −0.7 (0.8); Dyspareunia Mean (SD) Change from baseline (CFB) ([5]; 75 mg/day, 52 weeks): −0.9 (0.8); Dyspareunia Mean (SD) Change from baseline (CFB) ([5]; 100 mg/day, 12 weeks): −0.7 (0.9); Dyspareunia Mean (SD) Change from baseline (CFB) ([5]; 100 mg/day, 24 weeks): −0.6 (0.8); Dyspareunia Mean (SD) Change from baseline (CFB) ([5]; 100 mg/day, 52 weeks): −0.7 (1.1); Dyspareunia Mean (SD) Change from baseline (CFB) [5, 6]: −0.9 (0.9); Dyspareunia Mean (SD) Change from baseline (CFB) ([5]; 200 mg/day, 12 weeks): −0.8 (1.1)*; Dyspareunia Mean (SD) Change from baseline (CFB) ([5]; 200 mg/day, 24 weeks): −1.0 (1.0); Dyschezia Mean (SD) CFB ([5]; 50 mg/day, 12 weeks): −1.4 (1.7); Dyschezia Mean (SD) CFB ([5]; 50 mg/day, 24 weeks): −1.5 (2.1); Dyschezia Mean (SD) CFB ([5]; 50 mg/day, 52 weeks): −2.3 (1.8); Dyschezia Mean (SD) CFB ([5]; 75 mg/day, 12 weeks): −2.1 (2.5)*; Dyschezia Mean (SD) CFB ([5]; 75 mg/day, 24 weeks): −2.2 (2.5); Dyschezia Mean (SD) CFB ([5]; 75 mg/day, 52 weeks): −2.1 (2.9); Dyschezia Mean (SD) CFB ([5]; 100 mg/day, 12 weeks): −2.0 (1.8)*; Dyschezia Mean (SD) CFB ([5]; 100 mg/day, 24 weeks): −2.0 (2.3); Dyschezia Mean (SD) CFB ([5]; 100 mg/day, 52 weeks): −2.9 (3.1); Dyschezia Mean (SD) CFB [5, 6]: −2.6 (2.7); Dyschezia Mean (SD) CFB ([5]; 200 mg/day, 12 weeks): −1.7 (2.3)*; Dyschezia Mean (SD) CFB ([5]; 200 mg/day, 24 weeks): −2.5 (2.6); % responders DYS (dysmenorrhea) ([5]; 50 mg/day, 12 weeks): 43.3%; % responders NMPP (non-menstrual pelvic pain) ([5]; 50 mg/day, 12 weeks): 46.2%; % responders OPP (overall pelvic pain) ([5]; 50 mg/day, 12 weeks): 49.4%; % responders DYS (dysmenorrhea) ([5]; 50 mg/day, 24 weeks): 47.5%; % responders NMPP (non-menstrual pelvic pain) ([5]; 50 mg/day, 24 weeks): 50%; % responders OPP (overall pelvic pain) ([5]; 50 mg/day, 24 weeks): 52.5%; % responders DYS (dysmenorrhea) ([5]; 50 mg/day, 52 weeks): 50%; % responders NMPP (non-menstrual pelvic pain) ([5]; 50 mg/day, 52 weeks): 66.7%; % responders OPP (overall pelvic pain) ([5]; 50 mg/day, 52 weeks): 66.7%; Overall Pelvic Pain Responder Rate (VRS score reduction of >30% from baseline) ([5]; 75 mg once daily): 69.2%; % responders DYS (dysmenorrhea) ([5]; 75 mg/day, 12 weeks): 68.2* %; % responders NMPP (non-menstrual pelvic pain) ([5]; 75 mg/day, 12 weeks): 58.5* %; % responders OPP (overall pelvic pain) ([5]; 75 mg/day, 12 weeks): 61.5* %; % responders DYS (dysmenorrhea) ([5]; 75 mg/day, 24 weeks): 58.3%; % responders NMPP (non-menstrual pelvic pain) ([5]; 75 mg/day, 24 weeks): 72.9%; % responders OPP (overall pelvic pain) ([5]; 75 mg/day, 24 weeks): 70.8%; % responders DYS (dysmenorrhea) ([5]; 75 mg/day, 52 weeks): 69.2%; % responders NMPP (non-menstrual pelvic pain) ([5]; 75 mg/day, 52 weeks): 69.2%; % responders OPP (overall pelvic pain) ([5]; 75 mg/day, 52 weeks): 69.2%; % responders DYS (dysmenorrhea) ([5]; 100 mg/day, 12 weeks): 68.6* %; % responders NMPP (non-menstrual pelvic pain) ([5]; 100 mg/day, 12 weeks): 61.5* %; % responders OPP (overall pelvic pain) ([5]; 100 mg/day, 12 weeks): 56.4* %; % responders DYS (dysmenorrhea) ([5]; 100 mg/day, 24 weeks): 82.1%; % responders NMPP (non-menstrual pelvic pain) ([5]; 100 mg/day, 24 weeks): 64.1%; % responders OPP (overall pelvic pain) ([5]; 100 mg/day, 24 weeks): 66.7%; % responders DYS (dysmenorrhea) ([5]; 100 mg/day, 52 weeks): 69.2%; % responders NMPP (non-menstrual pelvic pain) ([5]; 100 mg/day, 52 weeks): 53.8%; % responders OPP (overall pelvic pain) ([5]; 100 mg/day, 52 weeks): 53.8%; Overall Pelvic Pain Responder Rate (VRS score reduction of >30% from baseline) ([5]; 200 mg once daily): 82.4%; % responders DYS (dysmenorrhea) [5, 6]: 64.7%; % responders NMPP (non-menstrual pelvic pain) [5, 6]: 76.5%; % responders OPP (overall pelvic pain) [5, 6]: 82.4%; % responders DYS (dysmenorrhea) ([5]; 200 mg/day, 12 weeks): 78.9* %; % responders NMPP (non-menstrual pelvic pain) ([5]; 200 mg/day, 12 weeks): 47.7%; % responders OPP (overall pelvic pain) ([5]; 200 mg/day, 12 weeks): 56.3* %; % responders DYS (dysmenorrhea) ([5]; 200 mg/day, 24 weeks): 84.1%; % responders NMPP (non-menstrual pelvic pain) ([5]; 200 mg/day, 24 weeks): 72.7%; % responders OPP (overall pelvic pain) ([5]; 200 mg/day, 24 weeks): 77.3%
